Assays:
[1] = Biodistribution of radiopharmaceuticals in rats with tourniquet on left hind leg; assay type: in vivo, Sprague-Dawley rats; details: for Femoral Percentage Dose per Gram / Tibial Percentage Dose per Gram: i.v. tail vein; for Tibial Percentage Dose per Gram: sacrifice after two hours
Excerpt: Rat biodistribution studies were done on Male Sprague-Dawley rats weighing 180–200 g that had been acclimated for approximately one week prior to this study. Four test complexes were used, Ho-DOTMP (Example 3), Ho-EDTMP (Example 4), Sm-DOTMP (Example 5) and Sm-EDTMP (Example 6). The rats were placed in a restraining cage that afforded accessibility to the left hind leg and tail. Prior to injection a tie wrap tourniquet was placed on the left hind femur above the knee to restrict blood flow. The amount of pressure induced by the tourniquet was standardized by using a tie wrap gun and was sufficient to stop arterial flow. Three rats per complex each received a 100.0 μL intravenous injection in a lateral tail vein. The tourniquets were allowed to remain in place for 5, 10 or 20 minutes post injection and were then removed. The rats were then watched for two hours, the usual biodistribution period used to allow excretion of all radioactive complexes not bound to tissue. The rats were then sacrificed for removal of tibias. The number of radioactive counts were then determined and compared to the average of number of counts of three 100.0 μL standards of the same material that was injected. Several additional tissues (femur, injection site, liver, kidney, spleen, muscle, and blood) were collected and counted for rats that had the 20 minutes restricted blood flow to check for expected renal excretion of radioactive complexes.
This reflects the concentration of the radioactive complex in the bone. Table 1 combines the data on the radioactivity found in the tibias of the rats from Examples 3 to 6 for each of the three times of tourniquet placement. Table 2 combines the data on the radioactivity found in the femurs of the rats from Examples 3 to 6 for the tourniquets applied for 20 minutes. The degree of “protection” of the bone by the tourniquet can be seen by comparison of the radioactivity in the bones on the left side (“protected” by the tourniquet for the time specified) as compared to the corresponding bones on the right side (fully exposed to the systemic, intravenous dose).

Staphylococcus aureus = assay: Treatment of osteomyelitis in rats with 166Ho-DOTMP (serial radiographs of the leg); assay type: in vivo, Sprague Dawley rats; details: rats with S. aureus osteomyelitis of left leg; intramuscular injection of 30 Gray (9 milliCurie); tourniquet above knee released after 10 minutes; in two weeks
Experimental: This example describes the successful treatment of osteomyelitis in rats using ^166Ho-DOTMP. Four 150 g male Sprague Dawley rats were anesthetized and prepared for surgery by shaving the left leg. The skin over the left tibia and fibula was opened, a hole was drilled into the bone marrow, and an 18-gauge needle was inserted into the bone marrow. Through the needle, a piece of 0 surgical suture and approximately 0.1 ml of Staphylococcus aureus culture in Trypticase soy broth were introduced into the bone marrow. The needle was removed and the bone defect sealed with cyanoacrylate glue. The skin was closed with 0 surgical suture. The rats were followed with serial radiographs of the left leg. Lytic lesions diagnostic of osteomyelitis developed in the fibula over the next three weeks. The entire bone appeared radiolucent. Two rats were followed without treatment. One week later, both of the rats died. […] Culture of the fluid grew Gram positive cocci consistent with the original Staphylococcus aureus infection. Two rats were treated with ^166Ho-DOTMP. A tourniquet was placed on the left leg above the knee. An intramuscular injection of 30 Gray (9 milliCurie) of ^166Ho-DOTMP was given after application of the tourniquet. The tourniquet was released after 10 minutes. The rats were followed with continued serial radiographs of the leg.

[2] = Left Femur (partially protected by tourniquet), tourniquet 20 minute
[3] = Left Tibia (protected by tourniquet), tourniquet 5 minute
[4] = Left Tibia (protected by tourniquet), tourniquet 10 minute
[5] = Left Tibia (protected by tourniquet), tourniquet 20 minute
[6] = Right Femur (unprotected), tourniquet 20 minute
[7] = Right Tibia (unprotected), tourniquet 5 minute
[8] = Right Tibia (unprotected), tourniquet 10 minute
[9] = Right Tibia (unprotected), tourniquet 20 minute

SMILES | Dose per Gram in Left Leg as a Percentage of Dose per Gram in Right Leg ([1]; Femur, tourniquet 20 minute) | Femoral Percentage Dose per Gram [1, 2] | Tibial Percentage Dose per Gram [1, 3] | Tibial Percentage Dose per Gram [1, 4] | Tibial Percentage Dose per Gram [1, 5] | Femoral Percentage Dose per Gram [1, 6] | Tibial Percentage Dose per Gram [1, 7] | Tibial Percentage Dose per Gram [1, 8] | Tibial Percentage Dose per Gram [1, 9] | Dose per Gram in Left Leg as a Percentage of Dose per Gram in Right Leg ([1]; Tibia, tourniquet 5 minute) | Dose per Gram in Left Leg as a Percentage of Dose per Gram in Right Leg ([1]; Tibia, tourniquet 10 minute) | Dose per Gram in Left Leg as a Percentage of Dose per Gram in Right Leg ([1]; Tibia, tourniquet 20 minute) | Radiographic appearance of tibia and fibula (Staphylococcus aureus)
O=P(O)(O)CN1CCN(CP(=O)(O)O)CCN(CP(=O)(O)O)CCN(CP(=O)(O)O)CC1.[Ho+3] [Ho-DOTMP] | 24% | 1.33 Percentage Dose per Gram | 3.19 Percentage Dose per Gram | 3.41 Percentage Dose per Gram | 1.35 Percentage Dose per Gram | 5.59 Percentage Dose per Gram | 7.06 Percentage Dose per Gram | 7.52 Percentage Dose per Gram | 6.39 Percentage Dose per Gram | 45% | 45% | 21% | 
O=P(O)(O)CN(CCN(CP(=O)(O)O)CP(=O)(O)O)CP(=O)(O)O.[Ho+3] [Ho-EDTMP] | 54% | 2.33 Percentage Dose per Gram | 1.35 Percentage Dose per Gram | 3.49 Percentage Dose per Gram | 1.25 Percentage Dose per Gram | 4.31 Percentage Dose per Gram | 1.60 Percentage Dose per Gram | 6.95 Percentage Dose per Gram | 5.33 Percentage Dose per Gram | 84% | 50% | 23% | 
O=P(O)(O)CN1CCN(CP(=O)(O)O)CCN(CP(=O)(O)O)CCN(CP(=O)(O)O)CC1.[Sm+3] [Sm-DOTMP] | 22% | 1.40 Percentage Dose per Gram | 4.82 Percentage Dose per Gram | 3.38 Percentage Dose per Gram | 2.06 Percentage Dose per Gram | 6.46 Percentage Dose per Gram | 7.91 Percentage Dose per Gram | 6.79 Percentage Dose per Gram | 8.34 Percentage Dose per Gram | 61% | 50% | 25% | 
O=P(O)(O)CN(CCN(CP(=O)(O)O)CP(=O)(O)O)CP(=O)(O)O.[Sm+3] [Sm-EDTMP] | 38% | 2.05 Percentage Dose per Gram | 5.33 Percentage Dose per Gram | 2.56 Percentage Dose per Gram | 2.04 Percentage Dose per Gram | 5.44 Percentage Dose per Gram | 6.73 Percentage Dose per Gram | 6.17 Percentage Dose per Gram | 5.73 Percentage Dose per Gram | 79% | 41% | 36% | 
O=P([O-])(O)CN1CCN(CP(=O)(O)O)CCN(CP(=O)([O-])O)CCN(CP(=O)(O)O)CC1.[166Ho] [^166Ho-DOTMP] |  |  |  |  |  |  |  |  |  |  |  |  | return to normal appearance of the tibia and fibula

Source: patent US7045116B2, “Treatment of osteomyelitis with radiopharmaceuticals” (priority 2001, dated 2006)
